The values below come from PMC6104039 (Nature Communications, 2018).

Where two headings read alike, the source gives them in different places.

What all share (format): biochemical
One assay deals with T1, human CerS4 (Homo sapiens, UniProt Q9HA82).
T1 construct: host or cells: U251
T1 sequence (Q9HA82 1-394): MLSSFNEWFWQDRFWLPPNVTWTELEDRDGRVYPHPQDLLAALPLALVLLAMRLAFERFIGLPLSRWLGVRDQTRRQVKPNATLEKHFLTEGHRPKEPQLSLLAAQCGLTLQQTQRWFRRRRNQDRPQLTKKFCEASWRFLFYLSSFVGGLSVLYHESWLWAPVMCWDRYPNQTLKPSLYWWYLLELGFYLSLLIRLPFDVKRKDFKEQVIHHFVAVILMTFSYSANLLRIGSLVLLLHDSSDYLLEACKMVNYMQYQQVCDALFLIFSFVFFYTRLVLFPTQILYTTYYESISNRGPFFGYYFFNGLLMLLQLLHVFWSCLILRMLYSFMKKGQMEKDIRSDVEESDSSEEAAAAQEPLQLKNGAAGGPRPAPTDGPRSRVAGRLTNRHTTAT
Briefly: Ceramide synthase assay, NBD-dihydrosphingosine, C18:0-CoA; U251 cells expressing human CerS4. As to conditions: inhibitor range 10 nM–100 μM; read-out: IC50 hCerS4. On the procedure: Ceramide synthase assays were carried out using an HPLC-based assay with a fluorescent NBD-dihydrosphingosine substrate. All cell lines used for these assays were originally sourced from ATCC. […] Human CerS expression plasmids (pCMV6 plasmids from Origene) were transfected using FuGene-6 transfection reagent, and cells were harvested 24 h after transfection in 20 mM Hepes pH 7.4, 10 mM KCl, 1 mM dithiothreitol, 3 mM β-glycerophosphate, and EDTA-free complete protease inhibitor cocktail (Roche). Cells were sonicated in a Diagenode Bioruptor sonicating bath for 5 min, after which cell extracts were cleared by centrifugation at 800 × g for 10 min. Protein concentration in the supernatant was assayed using the bicinchoninic acid (BCA) assay, and the supernatant stored at −80 °C. COS cells were infected with lentiviral constructs expressing murine CerS1, 2, or 5, then homogenised as described above.
The reaction buffer consisted of 20 mM Hepes pH 7.4, 25 mM KCl, 2 mM MgCl2, 0.5 mM dithiothreitol, 0.1% fatty acid free BSA, 10 μM NBD-dihydrosphingosine and 50 μM fatty acid free BSA. C18:0-CoA was used as the fatty acyl substrate for CerS1 and CerS4; C24:1-CoA for CerS2; and C16:0-CoA for CerS5 and CerS6. All reactions were run in triplicate. Test inhibitors were added, after which reactions were started with the addition of 2.5–25 μg lysate protein (optimised depending on the particular CerS isoform being assayed). Assays were run for 30 min at 37 °C, and stopped with the addition of 200 μL methanol. The reaction mixture was transferred to a glass HPLC vial with 300 μL fused glass insert (Thermo Fisher Scientific) and NBD-dihydroceramide reaction products were analysed on a Thermo Scientific Surveyor HPLC connected to a Shimadzu RF-10AXL fluorescent detector (set to gain of 3). […] Data was acquired over a 12 min chromatography run using: solvent A, 0.2% formic acid, 2 mM ammonium formate in water; solvent B, 0.2% formic acid, 1 mM ammonium formate in methanol. The gradient started at 20:80 A/B, increasing to 5:95 A/B over 2 min, then to 100% B over 6 min. The gradient was then held at 100% B for 2 min, before re-equilibration to 20:80 A/B for a further 2 min. Peak areas were integrated using Xcalibur software (Thermo Fisher Scientific).

In another assay the target is T2, CerS1 (Homo sapiens, UniProt P27544).
T2 sequence (P27544 1-350): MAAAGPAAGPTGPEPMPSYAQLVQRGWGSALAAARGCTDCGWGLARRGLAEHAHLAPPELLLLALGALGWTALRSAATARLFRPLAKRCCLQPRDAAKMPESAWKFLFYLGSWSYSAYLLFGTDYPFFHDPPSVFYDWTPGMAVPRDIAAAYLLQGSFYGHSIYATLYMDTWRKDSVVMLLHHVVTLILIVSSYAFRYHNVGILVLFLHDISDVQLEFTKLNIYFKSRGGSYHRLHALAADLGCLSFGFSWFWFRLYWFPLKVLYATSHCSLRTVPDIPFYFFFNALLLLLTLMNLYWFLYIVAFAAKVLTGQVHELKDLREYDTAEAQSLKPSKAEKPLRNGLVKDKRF
Briefly: Ceramide synthase assay, HPLC-based with fluorescent NBD-dihydrosphingosine, C18:0-CoA; extracts of HEK293 cells expressing human CerS1. Further details: host or cells: HEK293. Here is the method:
(§1) Ceramide synthase assays were carried out using an HPLC-based assay with a fluorescent NBD-dihydrosphingosine substrate. All cell lines used for these assays were originally sourced from ATCC. […] Cells were sonicated in a Diagenode Bioruptor sonicating bath for 5 min, after which cell extracts were cleared by centrifugation at 800 × g for 10 min. Protein concentration in the supernatant was assayed using the bicinchoninic acid (BCA) assay, and the supernatant stored at −80 °C. COS cells were infected with lentiviral constructs expressing murine CerS1, 2, or 5, then homogenised as described above.
(§2) The reaction buffer consisted of 20 mM Hepes pH 7.4, 25 mM KCl, 2 mM MgCl2, 0.5 mM dithiothreitol, 0.1% fatty acid free BSA, 10 μM NBD-dihydrosphingosine and 50 μM fatty acid free BSA. C18:0-CoA was used as the fatty acyl substrate for CerS1 and CerS4; C24:1-CoA for CerS2; and C16:0-CoA for CerS5 and CerS6. All reactions were run in triplicate. Test inhibitors were added, after which reactions were started with the addition of 2.5–25 μg lysate protein (optimised depending on the particular CerS isoform being assayed). […] The reaction mixture was transferred to a glass HPLC vial with 300 μL fused glass insert (Thermo Fisher Scientific) and NBD-dihydroceramide reaction products were analysed on a Thermo Scientific Surveyor HPLC connected to a Shimadzu RF-10AXL fluorescent detector (set to gain of 3). […] The gradient started at 20:80 A/B, increasing to 5:95 A/B over 2 min, then to 100% B over 6 min. The gradient was then held at 100% B for 2 min, before re-equilibration to 20:80 A/B for a further 2 min. Peak areas were integrated using Xcalibur software (Thermo Fisher Scientific).

The target in the next assay is T3, human CerS2 (Homo sapiens, UniProt Q96G23).
T3 sequence (Q96G23 1-380): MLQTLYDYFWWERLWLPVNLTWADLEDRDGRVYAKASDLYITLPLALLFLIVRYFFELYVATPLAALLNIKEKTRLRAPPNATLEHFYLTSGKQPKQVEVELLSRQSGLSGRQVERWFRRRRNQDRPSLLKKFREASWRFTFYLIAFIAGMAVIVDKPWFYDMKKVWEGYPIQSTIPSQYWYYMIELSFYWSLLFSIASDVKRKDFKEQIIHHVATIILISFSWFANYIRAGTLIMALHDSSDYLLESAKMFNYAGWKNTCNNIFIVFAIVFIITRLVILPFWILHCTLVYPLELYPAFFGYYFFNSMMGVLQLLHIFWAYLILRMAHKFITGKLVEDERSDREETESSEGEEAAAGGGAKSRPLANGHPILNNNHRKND
The assay can be described thus: Ceramide synthase assay, NBD-dihydrosphingosine, C24:1-CoA; HEK293 cells expressing human CerS2. Particulars: inhibitor range 10 nM–100 μM; read-out: IC50 hCerS2. On the procedure:
as §1, §2

The mark [1] stands for this setting: inhibitor range 10 nM–100 μM, read-out: IC50 hCerS1.

Take `C[C@@](N)(CO)CCc1ccc(OCc2ccccc2)cc1` [G024, (2S)-2-amino-4-(4′-benzyloxyphenyl)-2-methyl-1-butanol]: the IC50 at human CerS4 was 18 ± 0.12 µM; at CerS1 (setting [1]), 6 ± 0.1 µM; on human CerS2, 14.5 ± 0.09 µM.

`C[C@@](N)(CO)CCc1ccc(OCc2ccc(Cl)c(Cl)c2)cc1` [P053, (S)-2-amino-4-(4-(3,4-dichlorobenzyloxy)phenyl)-2-methylbutan-1-ol]: the IC50 on human CerS4 was determined as 17.2 ± 0.09 µM; on CerS1 (setting [1]) it was 0.54 ± 0.06 µM; at CerS1 (read-out: IC50 for inhibition of CerS1), 0.5 µM; at human CerS2, 28.6 ± 0.15 µM.

In the case of `CCCCCCCCc1ccc(CCC(N)(CO)CO)cc1` [FTY720, reference compound], the IC50 is 26 ± 0.18 µM at human CerS4 and 19.1 ± 0.1 µM on human CerS2.

Consider `CCCC[C@@H](C)[C@@H](OC(=O)C[C@@H](CC(=O)O)C(=O)O)[C@H](C[C@@H](C)C[C@H](O)CCCC[C@@H](O)C[C@H](O)[C@H](C)N)OC(=O)C[C@@H](CC(=O)O)C(=O)O` [FB1, reference compound], for which the IC50 on human CerS4 is 0.92 ± 0.06 µM; at CerS1 (setting [1]) it was 0.22 ± 0.05 µM; at human CerS2, 0.15 ± 0.08 µM. Further, the “IC50, all CerS isoforms” value against CerS1 (all CerS isoforms, in words) is “sub-micromolar”.

What is called IC50 is the concentration needed to halve the response being measured.
